Test results from ChEMBL document CHEMBL1201862, “PubChem BioAssay data set” (2004).
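In this assay, cells in 96-well plates receive the compound at five concentrations for 48 hours. Endpoints are linearly interpolated between the surrounding concentrations. GI50 marks 50% less growth.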 The source made the active and inactive calls. No stated cut-off is given here; in the data, active = GI50 up to about 1.1 µM and inactive = higher.

Key:
Experiment in all cases: NCI tumour cell line growth inhibition, 48 h
[1] = system: 786-0
[2] = system: A498
[3] = system: A549
[4] = system: ACHN
[5] = system: CAKI-1
[6] = system: CCRF-CEM
[7] = system: COLO 205
[8] = system: DU-145
[9] = system: EKVX
[10] = system: HCC 2998
[11] = system: HCT-116
[12] = system: HCT-15
[13] = system: HL-60
[14] = system: HOP-62
[15] = system: HT-29
[16] = system: Hs-578T
[17] = system: IGROV-1
[18] = system: K562
[19] = system: KM12
[20] = system: LOX IMVI
[21] = system: M14
[22] = system: MCF7
[23] = system: MDA-MB-231
[24] = system: MDA-MB-435
[25] = system: MDA-N
[26] = system: MOLT-4
[27] = system: Malme-3M
[28] = system: NCI-H226
[29] = system: NCI-H23
[30] = system: NCI-H460
[31] = system: NCI-H522
[32] = system: NCI/ADR-RES
[33] = system: OVCAR-3
[34] = system: OVCAR-4
[35] = system: OVCAR-5
[36] = system: OVCAR-8
[37] = system: PC-3
[38] = system: RPMI-8226
[39] = system: RXF 393
[40] = system: SF-268
[41] = system: SF-295
[42] = system: SF-539
[43] = system: SK-MEL-28
[44] = system: SK-MEL-2
[45] = system: SK-MEL-5
[46] = system: SK-OV-3
[47] = system: SN12C
[48] = system: SNB-19
[49] = system: SNB-75
[50] = system: SR
[51] = system: SW-620
[52] = system: T47D
[53] = system: U-251
[54] = system: UACC-257
[55] = system: UACC-62
[56] = system: BT-549
[57] = system: HOP-92
[58] = system: TK-10
[59] = system: UO-31

CC(=O)/N=C1\N/C(=C\c2ccc(Cl)cc2)C(=O)N1/C=C1\C(=O)Oc2ccccc2C1=O
GI50 [1]: > 100 µM (inactive) | GI50 [2]: 10.8 µM (inactive) | GI50 [3]: > 100 µM (inactive) | GI50 [4]: > 100 µM (inactive) | GI50 [5]: > 100 µM (inactive) | GI50 [6]: > 100 µM (inactive) | GI50 [7]: > 100 µM (inactive) | GI50 [8]: > 100 µM (inactive) | GI50 [9]: 13.3 µM (inactive) | GI50 [10]: > 100 µM (inactive) | GI50 [11]: > 100 µM (inactive) | GI50 [12]: 85.1 µM | GI50 [13]: > 100 µM (inactive) | GI50 [14]: > 100 µM (inactive) | GI50 [15]: > 100 µM (inactive) | GI50 [16]: 1.4 µM (inactive) | GI50 [17]: > 100 µM (inactive) | GI50 [18]: 67.3 µM (inactive) | GI50 [19]: > 100 µM (inactive) | GI50 [20]: > 100 µM (inactive) | GI50 [21]: > 100 µM (inactive) | GI50 [22]: > 100 µM (inactive) | GI50 [23]: > 100 µM (inactive) | GI50 [24]: 51.2 µM (inactive) | GI50 [25]: > 100 µM (inactive) | GI50 [26]: > 100 µM (inactive) | GI50 [27]: > 100 µM (inactive) | GI50 [28]: > 100 µM (inactive) | GI50 [29]: > 100 µM (inactive) | GI50 [30]: > 100 µM (inactive) | GI50 [31]: 78.9 µM (inactive) | GI50 [32]: > 100 µM (inactive) | GI50 [33]: 77.8 µM (inactive) | GI50 [34]: > 100 µM (inactive) | GI50 [35]: > 100 µM (inactive) | GI50 [36]: > 100 µM (inactive) | GI50 [37]: > 100 µM (inactive) | GI50 [38]: > 100 µM (inactive) | GI50 [39]: > 100 µM (inactive) | GI50 [40]: 45.9 µM (inactive) | GI50 [41]: > 100 µM (inactive) | GI50 [42]: > 100 µM (inactive) | GI50 [43]: > 100 µM (inactive) | GI50 [44]: > 100 µM (inactive) | GI50 [45]: 47.2 µM (inactive) | GI50 [46]: > 100 µM (inactive) | GI50 [47]: > 100 µM (inactive) | GI50 [48]: > 100 µM (inactive) | GI50 [49]: 27.5 µM (inactive) | GI50 [50]: 52.2 µM (inactive) | GI50 [51]: > 100 µM (inactive) | GI50 [52]: > 100 µM (inactive) | GI50 [53]: 61.1 µM (inactive) | GI50 [54]: > 100 µM (inactive) | GI50 [55]: 26.3 µM (inactive)

O=C(c1ccccc1)c1cc(-c2ccccc2)c(-c2ccccc2)[nH]c(=O)c1=O
GI50 [1]: > 100 µM (inactive) | GI50 [2]: 77.4 µM (inactive) | GI50 [3]: 41.7 µM (inactive) | GI50 [4]: 63.5 µM (inactive) | GI50 [56]: 22.5 µM (inactive) | GI50 [5]: 30.9 µM (inactive) | GI50 [6]: 15.2 µM (inactive) | GI50 [7]: 27.2 µM (inactive) | GI50 [9]: 33.7 µM (inactive) | GI50 [10]: 26.9 µM (inactive) | GI50 [11]: 35.2 µM (inactive) | GI50 [12]: 28.3 µM | GI50 [13]: 15.7 µM (inactive) | GI50 [14]: 59.6 µM (inactive) | GI50 [57]: 41.1 µM (inactive) | GI50 [15]: 36.6 µM (inactive) | GI50 [16]: 40.9 µM (inactive) | GI50 [17]: 60 µM (inactive) | GI50 [18]: 32.6 µM (inactive) | GI50 [19]: 35.8 µM (inactive) | GI50 [20]: 34.5 µM (inactive) | GI50 [21]: 41.2 µM (inactive) | GI50 [22]: 31.5 µM (inactive) | GI50 [23]: > 100 µM (inactive) | GI50 [24]: 30.5 µM (inactive) | GI50 [25]: 38.5 µM (inactive) | GI50 [26]: 24.2 µM (inactive) | GI50 [27]: 49.3 µM (inactive) | GI50 [28]: 43.4 µM (inactive) | GI50 [29]: 19 µM (inactive) | GI50 [30]: 34 µM (inactive) | GI50 [31]: 22.1 µM (inactive) | GI50 [32]: 33.7 µM (inactive) | GI50 [33]: 35.6 µM (inactive) | GI50 [34]: 33.7 µM (inactive) | GI50 [35]: 54.2 µM (inactive) | GI50 [36]: 37.4 µM (inactive) | GI50 [37]: 36.6 µM (inactive) | GI50 [38]: 23.9 µM (inactive) | GI50 [40]: 50.5 µM (inactive) | GI50 [41]: 40.7 µM (inactive) | GI50 [42]: 31.3 µM (inactive) | GI50 [43]: 42.2 µM (inactive) | GI50 [44]: 24.3 µM (inactive) | GI50 [45]: 31.6 µM (inactive) | GI50 [46]: > 100 µM (inactive) | GI50 [47]: 35.2 µM (inactive) | GI50 [48]: 64.6 µM (inactive) | GI50 [50]: 24.1 µM (inactive) | GI50 [51]: 37.2 µM (inactive) | GI50 [58]: 56.2 µM (inactive) | GI50 [53]: 37.8 µM (inactive) | GI50 [54]: 41.5 µM (inactive) | GI50 [55]: 25.1 µM (inactive) | GI50 [59]: 35.8 µM (inactive)
